Data: publication PMC10763561, “Red-light modulated ortho-chloro azobenzene photoswitch for peptide stapling via aromatic substitution” (RSC Chemical Biology, 2023)
Read-outs that look alike come from different tables or passages of the source. Starred links: 1 amine or outer side, 2 acyl side, 3 side chain; linkers in the order of their positions; H or OH if unused. Positions of bridges follow the written chain, without caps; N, C: chain ends. Residues, ends and D or L forms follow the SMILES beside them. X1 = Clc1cc([*:1])cc(Cl)c1N=Nc1c(Cl)cc([*:2])cc1Cl

Columns and labels:
[1] = target: T1, p53-interacting domain of human MDM2 (MDM2 6-125) (Homo sapiens, UniProt Q00987); test: MDM2 direct fluorescence polarisation binding assay; conditions: direct FP, 15 nM tracer, MDM2 titrated from 9.75 uM, 18-point, PBS 0.05% Tween-20 3% DMSO, 1:1 binding model
T1 construct: human MDM2 (MDM26–125)
Experimental: To assess the binding affinity of the precursor peptide P1 and the photoswitchable stapled peptide SP1 for MDM2, a competitive fluorescence polarisation (FP) assay was carried out using the p53-interacting domain of human MDM2 (MDM26–125). […] The inhibitory constants (Ki) for all peptides were subsequently determined. […] This can be attributed the loss in α-helicity observed for P1, in comparison to that of PMI,[34] measured by CD analysis. To induce in situ isomerisation, SP1 was irradiated with red or purple light in FP buffer prior to commencing the experiment. […] The Ki values for each isomer were determined from their corresponding inflection points in the fitted sigmoidal curve. […]
The half-life of the metastable cis SP1 form in FP assay buffer was determined by analytical HPLC analysis (Figure S3). […]
P1 and SP1 (10 μL, 10 mM stock in DMSO) were incubated with PBS (1x, 500 μL), human serum (50 μL) and caffeine (10 μL of a 11.25 mg/mL solution in MQ water) at 37 °C for 5 days. […] The samples were spun at 13400 g for 10 minutes and the supernatant analysed by HPLC analysis, with a 5-95% B gradient (A: 0.05% (v/v) TFA in H2O, B: 0.05% (v/v) TFA in MeCN) over 18 minutes at 220 nm.
Caffeine was used as an internal standard to enable quantification of degradation over time. […]
7 Fluorescence Polarisation (FP) Assay […]
7.1 MDM2 Fluorescence Polarisation Binding Assay […]

[2] = Serum stability study monitored by HPLC; format: in vitro ADME, human; conditions: 37 °C, HPLC 220 nm
Experimental: The stability of SP1 in human serum was investigated and compared to the stability of its linear precursor P1 and the parent PMI (Fig. 6). The stability of the peptides at 37 °C in human serum was monitored throughout 5 days by HPLC.
Fig. 6 Stability of the precursor peptide P1, the parent PMI and SP1 in human serum at 37 °C, over 5 days, monitored by HPLC at 220 nm. […]
6.2 Serum Stability Studies
P1 and SP1 (10 μL, 10 mM stock in DMSO) were incubated with PBS (1x, 500 μL), human serum (50 μL) and caffeine (10 μL of a 11.25 mg/mL solution in MQ water) at 37 °C for 5 days. At specific intervals, aliquots (25 μL) of the reaction mixture were taken, flash frozen in liquid nitrogen and stored at -20 °C prior to analysis on the same day. Upon unfreezing, the samples were quenched with 25 μL of 96% ethanol and 25 μL of DMSO. The samples were spun at 13400 g for 10 minutes and the supernatant analysed by HPLC analysis, with a 5-95% B gradient (A: 0.05% (v/v) TFA in H2O, B: 0.05% (v/v) TFA in MeCN) over 18 minutes at 220 nm.
Caffeine was used as an internal standard to enable quantification of degradation over time. The experiment was performed in duplicates (Table S2-4). […]

[3] = human, human serum diluted in PBS, replicate 1, human serum 50 uL in PBS 500 uL, caffeine internal standard, read-out: Normalised Linker % (peptide remaining)
[4] = human, human serum diluted in PBS, replicate 2, human serum 50 uL in PBS 500 uL, caffeine internal standard, read-out: Normalised Linker % (peptide remaining)
[5] = human, human serum diluted in PBS, 24 h, replicate 2, human serum 50 uL in PBS 500 uL, caffeine internal standard, read-out: Normalised Linker % (peptide remaining)

T1 sequence (Q00987 6-125 limits assumed): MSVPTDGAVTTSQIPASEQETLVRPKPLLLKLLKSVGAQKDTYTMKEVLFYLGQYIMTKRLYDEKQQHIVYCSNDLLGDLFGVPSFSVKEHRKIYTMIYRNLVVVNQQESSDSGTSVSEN

CSCC[C@H](NC(=O)[C@H](Cc1ccccc1)NC(=O)[C@H](CCCNC(=N)N)NC(=O)c1ccc2c(c1)C(=O)OC21c2ccc(N(C)C)cc2Oc2cc(N(C)C)ccc21)C(=O)N[C@@H](CC(=O)O)C(=O)N[C@@H](Cc1ccc(O)cc1)C(=O)N[C@@H](Cc1c[nH]c2ccccc12)C(=O)N[C@@H](CCC(=O)O)C(=O)NCC(=O)N[C@@H](CC(C)C)C(N)=O [FP tracer peptide, TAMRA-RFMDYWEGL-NH2]
Kd [1]: 7.6 nM

CC(=O)N[C@H](C(=O)N[C@@H](CO)C(=O)N[C@@H](Cc1ccccc1)C(=O)N[C@@H](C)C(=O)N[C@@H](CS)C(=O)N[C@@H](Cc1ccc(O)cc1)C(=O)N[C@@H](Cc1c[nH]c2ccccc12)C(=O)N[C@@H](CC(N)=O)C(=O)NCC(=O)N[C@@H](CC(C)C)C(=O)N[C@@H](CO)C(=O)N[C@@H](CS)C(N)=O)[C@@H](C)O [Peptide P1] (Ac-TSFACYWNGLSC-NH2)
Normalised Linker % (peptide remaining) ([2]; 1 h, replicate 2, without the addition of TCEP, human serum 50 uL in PBS 500 uL, caffeine internal standard): 0.000% | remaining at 0.5 h, 175 µM ([2]; human serum diluted in PBS, 0.5 h, replicate 1, without the addition of TCEP, human serum 50 uL in PBS 500 uL, caffeine internal standard, read-out: Normalised Linker % (peptide remaining)): 12.8% | remaining at 1 h, 175 µM ([2]; human serum diluted in PBS, 1 h, replicate 1, without the addition of TCEP, human serum 50 uL in PBS 500 uL, caffeine internal standard, read-out: Normalised Linker % (peptide remaining)): 0%

CC(=O)N[C@H](C(=O)N[C@@H](CO)C(=O)N[C@@H](Cc1ccccc1)C(=O)N[C@@H](C)C(=O)N[C@H]1CSc2cc(Cl)c(c(Cl)c2)N=Nc2c(Cl)cc(cc2Cl)SC[C@@H](C(N)=O)NC(=O)[C@H](CO)NC(=O)[C@H](CC(C)C)NC(=O)CNC(=O)[C@H](CC(N)=O)NC(=O)[C@H](Cc2c[nH]c3ccccc23)NC(=O)[C@H](Cc2ccc(O)cc2)NC1=O)[C@@H](C)O [SP1] (Ac-TSFACYWNGLSC-NH2; linker 5-12 via X1)
stability in human serum compared with P1 and PMI ([2]; human serum, 5 days): markedly improved stability | remaining at 2 h, 175 µM [2, 3]: 88.6% | remaining at 2 h, 175 µM [2, 4]: 89% | remaining at 24 h, 175 µM ([2]; human, human serum diluted in PBS, 24 h, replicate 1, human serum 50 uL in PBS 500 uL, caffeine internal standard, read-out: Normalised Linker % (peptide remaining)): 82.9% | remaining at 24 h, 175 µM [2, 5]: 72.4% | remaining at 72 h, 175 µM [2, 3]: 79.2% | remaining at 72 h, 175 µM [2, 4]: 53.6% | remaining at 120 h, 175 µM [2, 3]: 82.4% | remaining at 120 h, 175 µM [2, 4]: 48%

Ac-TSFAEYWNNLSP-NH2 [PMI, reference compound]
Normalised Linker % (peptide remaining) ([2]; 24 h, replicate 1, human serum 50 uL in PBS 500 uL, caffeine internal standard): 0.000% | remaining at 1 h, 175 µM ([2]; human, human serum diluted in PBS, 1 h, replicate 1, human serum 50 uL in PBS 500 uL, caffeine internal standard, read-out: Normalised Linker % (peptide remaining)): 87.2% | remaining at 1 h, 175 µM ([2]; human, human serum diluted in PBS, 1 h, replicate 2, human serum 50 uL in PBS 500 uL, caffeine internal standard, read-out: Normalised Linker % (peptide remaining)): 97.2% | remaining at 3 h, 175 µM [2, 3]: 72.8% | remaining at 3 h, 175 µM [2, 4]: 76.2% | remaining at 6 h, 175 µM [2, 3]: 47.4% | remaining at 6 h, 175 µM [2, 4]: 32.7% | remaining at 9 h, 175 µM [2, 3]: 23.2% | remaining at 9 h, 175 µM [2, 4]: 11.3% | remaining at 24 h, 175 µM [2, 5]: 0%
